The subject of the assay is primary rat mixed cortical cells. The experiment in a line: In vitro myelination assay (MBP positive myelin strands, fold myelin pixels above background). The format is cell-based. The conditions noted are these: Rattus norvegicus, relative to baseline of no added compound, read-out: Fold myelin pixels above background; for fold induction at 1 µM: 1.0 μM compound; for fold induction at 10 µM: 10.0 μM compound. An outline of the steps:
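Read-out is total MBP-positive myelin strand pixels per well, detected by custom ridge-tracing software and reported as fold over untreated baseline. Primary P1 rat mixed cortical cells received compound (1.0 or 10.0 μM) for 14 days, with medium half-replaced on days 6 and 10. Standard deviation was taken across all replicates.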

This is an account of results in patent US10766869B2, “Triazoles for the treatment of demyelinating dieases” (Vertex Pharmaceuticals Incorporated, priority 2015, dated 2020).

In the case of `Cc1cc(Nc2ncn(-c3cc(C)ccc3F)n2)cc(N2CCN(C3COC3)CC2)c1` [Compound 476, 1-(2-fluoro-5-methyl-phenyl)-N-[3-methyl-5-[4-(oxetan-3-yl)piperazin-1-yl]phenyl]-1,2,4-triazol-3-amine], the fold induction at 1 µM is 10 to 100 and the fold induction at 10 µM lay within 10 to 100.

On to `CN1CCN(c2cc(Nc3ncn(-c4ccc(F)c(F)c4)n3)cc(Cl)n2)CC1` [Compound 477, 2-chloro-N-[1-(3,4-difluorophenyl)-1,2,4-triazol-3-yl]-6-(4-methylpiperazin-1-yl)pyridin-4-amine], for which the fold induction at 1 µM was 10 to 100 and the fold induction at 10 µM is not above 1.

Regarding `Cc1cc(Nc2ncn(-c3ccc(OC(F)(F)F)cc3)n2)cc(N2CCN(C3COC3)CC2)c1` [Compound 478, N-[3-methyl-5-[4-(oxetan-3-yl)piperazin-1-yl]phenyl]-1-[4-(trifluoromethoxy)phenyl]-1,2,4-triazol-3-amine], the fold induction at 1 µM was in the range of 1 to 10 and the fold induction at 10 µM was in the range of 1 to 10.

As for `Cc1cc(Nc2ncn(-c3ccccc3)n2)cc(N2C[C@@H]3C[C@H]2CN3C)c1` [Compound 479, N-[3-methyl-5-[(1S,4S)-5-methyl-2,5-diazabicyclo[2.2.1]heptan-2-yl]phenyl]-1-phenyl-1,2,4-triazol-3-amine], the fold induction at 1 µM was in the range of 100 to 1000 and the fold induction at 10 µM was not above 1.

On to `Cc1cc(Nc2ncn(-c3cc(F)cc(N4CCC(CO)C4)c3)n2)cc(N2CCN(C3COC3)CC2)c1` (stereo not shown) [Compound 480, [1-[3-fluoro-5-[3-[3-methyl-5-[4-(oxetan-3-yl)piperazin-1-yl]anilino]-1,2,4-triazol-1-yl]phenyl]pyrrolidin-3-yl]methanol], for which the fold induction at 1 µM was 10 to 100 and the fold induction at 10 µM was not above 1.

In the case of `COCC1CCN(c2cc(C)cc(Nc3ncn(-c4ccccc4)n3)c2)CC1` [Compound 481, N-[3-[4-(methoxymethyl)-1-piperidyl]-5-methyl-phenyl]-1-phenyl-1,2,4-triazol-3-amine], the fold induction at 1 µM is 100 to 1000 and the fold induction at 10 µM lay within 100 to 1000.

`Cc1cc(Nc2ncn(-c3cc(F)cc(F)c3)n2)cc(N2CCN(C3CC3)CC2)c1` [Compound 482, N-[3-(4-cyclopropylpiperazin-1-yl)-5-methyl-phenyl]-1-(3,5-difluorophenyl)-1,2,4-triazol-3-amine]: the fold induction at 1 µM fell in the range of 10 to 100 and the fold induction at 10 µM fell in the range of 100 to 1000.

For `Cc1cc(Nc2ncn(-c3ccccc3)n2)cc(C2CCN(CC3(C)COC3)CC2)c1` [Compound 483, N-[3-methyl-5-[1-[(3-methyloxetan-3-yl)methyl]-4-piperidyl]phenyl]-1-phenyl-1,2,4-triazol-3-amine], the fold induction at 1 µM was not above 1 and the fold induction at 10 µM is not above 1.

With `Cc1cc(Nc2ncn(-c3cc(F)cc(F)c3F)n2)cc(N2CCN(C3COC3)CC2)c1` [Compound 484, N-[3-methyl-5-[4-(oxetan-3-yl)piperazin-1-yl]phenyl]-1-(2,3,5-trifluorophenyl)-1,2,4-triazol-3-amine], the fold induction at 1 µM is not above 1 and the fold induction at 10 µM was not above 1.

For `CN1CCN(c2cc(Nc3ncn(-c4ccccc4)n3)cc(C(F)(F)F)c2)CC1` [Compound 486, N-[3-(4-methylpiperazin-1-yl)-5-(trifluoromethyl)phenyl]-1-phenyl-1,2,4-triazol-3-amine], the fold induction at 1 µM lay in the range of 100 to 1000 and the fold induction at 10 µM is not above 1.

`Cc1cc(Nc2ncn(-c3cc(F)cc(F)c3)n2)cc([C@]2(O)CCN(C3COC3)C2)c1` [Compound 487, (3R)-3-[3-[[1-(3,5-difluorophenyl)-1,2,4-triazol-3-yl]amino]-5-methyl-phenyl]-1-(oxetan-3-yl)pyrrolidin-3-ol]: the fold induction at 1 µM was 100 to 1000 and the fold induction at 10 µM was in the range of 1 to 10.

For `Cc1cc(Nc2ncn(-c3cccc(Cl)n3)n2)cc(N2CCCC2)c1` [Compound 488, 1-(6-chloro-2-pyridyl)-N-(3-methyl-5-pyrrolidin-1-yl-phenyl)-1,2,4-triazol-3-amine], the fold induction at 1 µM is not above 1 and the fold induction at 10 µM is not above 1.

Regarding `CCc1cc(Nc2ncn(-c3cnccn3)n2)cc(N2CCN(C3(C)COC3)CC2)c1` [Compound 489, N-[3-ethyl-5-[4-(3-methyloxetan-3-yl)piperazin-1-yl]phenyl]-1-pyrazin-2-yl-1,2,4-triazol-3-amine], the fold induction at 1 µM was in the range of 10 to 100 and the fold induction at 10 µM was in the range of 10 to 100.

As to `COC[C@H]1CCCN1c1cc(F)cc(-n2cnc(Nc3cc(C)cc(N4CCN(C5COC5)CC4)c3)n2)c1` [Compound 491, 1-[3-fluoro-5-[(2R)-2-(methoxymethyl)pyrrolidin-1-yl]phenyl]-N-[3-methyl-5-[4-(oxetan-3-yl)piperazin-1-yl]phenyl]-1,2,4-triazol-3-amine], the fold induction at 1 µM fell in the range of 100 to 1000 and the fold induction at 10 µM is not above 1.

As for `Fc1ccc(-n2cnc(Nc3cc(C4CC4)nc(N4CC[C@H](F)C4)c3)n2)cc1F` [Compound 492, 2-cyclopropyl-N-[1-(3,4-difluorophenyl)-1,2,4-triazol-3-yl]-6-[(3S)-3-fluoropyrrolidin-1-yl]pyridin-4-amine], the fold induction at 1 µM lay in the range of 1000 to 10000 and the fold induction at 10 µM fell in the range of 1000 to 10000.

For `Cc1cc(Nc2ncn(-c3cc(F)cc(F)c3)n2)cc(N2CC(CO)C2)c1` [Compound 493, [1-[3-[[1-(3,5-difluorophenyl)-1,2,4-triazol-3-yl]amino]-5-methyl-phenyl]azetidin-3-yl]methanol], the fold induction at 10 µM is not above 1.

On to `COC1CN(c2cc(F)cc(-n3cnc(Nc4cc(C5CC5)cc(N5CCN(C6COC6)CC5)c4)n3)c2)C1` [Compound 494, N-[3-cyclopropyl-5-[4-(oxetan-3-yl)piperazin-1-yl]phenyl]-1-[3-fluoro-5-(3-methoxyazetidin-1-yl)phenyl]-1,2,4-triazol-3-amine], for which the fold induction at 1 µM is 100 to 1000 and the fold induction at 10 µM lay in the range of 10 to 100.

For `Cc1cc(Nc2ncn(-c3ccnc(N4CCCCCC4)c3)n2)cc(N2CCN(C)CC2)c1` [Compound 495, 1-[2-(azepan-1-yl)-4-pyridyl]-N-[3-methyl-5-(4-methylpiperazin-1-yl)phenyl]-1,2,4-triazol-3-amine], the fold induction at 10 µM is not above 1.

In the case of `Cc1cc(NCCC2CCCO2)cc(Nc2ncn(-c3cc(F)cc(F)c3)n2)c1` (stereo not shown) [Compound 496, N1-[1-(3,5-difluorophenyl)-1,2,4-triazol-3-yl]-5-methyl-N3-(2-tetrahydrofuran-2-ylethyl)benzene-1,3-diamine], the fold induction at 1 µM fell in the range of 100 to 1000 and the fold induction at 10 µM fell in the range of 1 to 10.

As for `Fc1cc(Nc2ncn(-c3ccc(F)cc3F)n2)cc(N2CCCC2)c1` [Compound 497, 1-(2,4-difluorophenyl)-N-(3-fluoro-5-pyrrolidin-1-yl-phenyl)-1,2,4-triazol-3-amine], the fold induction at 1 µM is not above 1 and the fold induction at 10 µM was not above 1.

Take `Fc1ccc(-n2cnc(Nc3cc(C4CC4)nc(N4CC[C@@H](F)C4)c3)n2)cc1F` [Compound 498, 2-cyclopropyl-N-[1-(3,4-difluorophenyl)-1,2,4-triazol-3-yl]-6-[(3R)-3-fluoropyrrolidin-1-yl]pyridin-4-amine]: the fold induction at 1 µM is 100 to 1000 and the fold induction at 10 µM lay within 100 to 1000.
